Patent US12577228B2, “Dihydrocyclopenta-isoquinoline-sulfonamide derivatives compounds” (UCB Biopharma SRL, priority 2019, dated 2026)
pIC50: −log10 of the molar value.

Biological target: T1, IgE-Tb / soluble IgE receptor FcεRIα with a Y131A mutation (Homo sapiens, UniProt P01854, N146Q/N252Q)
T1 construct: fused on or other part: Terbium chelate (LanthaScreen amine-reactive) on IgE-Fc; Alexa Fluor 488 hydrazide on the oxidised glycans of sFcεRIα; Both are labels and no part of the key
Test: in vitro FRET assay: binding of IgE-Tb to receptor FcεRIα-Y131A-AF488 and its inhibition by compounds
Conditions: 5 nM IgE-Tb, 25 nM FcεRIα-Y131A-AF488, 2 hours at room temperature; read-out: FRET IC50 range

T1 sequence (P01854 104-427 N146Q/N252Q): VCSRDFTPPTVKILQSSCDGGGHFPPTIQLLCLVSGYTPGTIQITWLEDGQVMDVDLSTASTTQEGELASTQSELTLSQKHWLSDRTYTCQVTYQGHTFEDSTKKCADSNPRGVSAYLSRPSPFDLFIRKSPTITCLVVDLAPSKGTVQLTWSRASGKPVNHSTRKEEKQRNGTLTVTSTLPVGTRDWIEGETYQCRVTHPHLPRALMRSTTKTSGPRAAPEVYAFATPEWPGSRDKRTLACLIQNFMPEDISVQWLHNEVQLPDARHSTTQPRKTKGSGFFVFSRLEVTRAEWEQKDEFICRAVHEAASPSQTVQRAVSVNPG
T1 sequence (P12319 26-201 Y156A partner): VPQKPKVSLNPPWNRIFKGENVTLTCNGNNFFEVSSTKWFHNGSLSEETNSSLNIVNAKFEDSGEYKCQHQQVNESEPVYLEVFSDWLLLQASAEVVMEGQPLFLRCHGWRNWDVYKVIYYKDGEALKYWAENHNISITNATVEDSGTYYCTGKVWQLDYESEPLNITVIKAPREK

First: COc1ccc2c(C(=O)N[C@@H]3Cc4cc5cnc(C6CC6)cc5c(S(=O)(=O)NCC(C)(C)F)c4C3)c[nH]c2c1 [Example 133, N-[(7R)-3-cyclopropyl-5-[(2-fluoro-2-methylpropyl)sulfamoyl]-7,8-dihydro-6H-cyclopenta[g]isoquinolin-7-yl]-6-methoxy-1H-indole-3-carboxamide]
Second: Cc1ncsc1C(=O)N[C@@H]1Cc2cc3cnc(C4CC4)cc3c(S(=O)(=O)NCC(C)(C)F)c2C1 [Example 134, N-[(7R)-3-cyclopropyl-5-[(2-fluoro-2-methylpropyl)sulfamoyl]-7,8-dihydro-6H-cyclopenta[g]isoquinolin-7-yl]-4-methyl-1,3-thiazole-5-carboxamide]
The pIC50 of the first is higher: 7.30 to 8.00 for the first, 5.70 to 7.00 for the second.

Compared with `Cn1nnc(-c2ccc(N[C@@H]3Cc4cc5cnc(C6CC6)cc5c(S(=O)(=O)NC5CC(F)C5)c4C3)cn2)n1` (stereo partly drawn) [Example 1, (7R)-3-cyclopropyl-N-(3-fluorocyclobutyl)-7-[[6-(2-methyltetrazol-5-yl)pyridin-3-yl]amino]-7,8-dihydro-6H-cyclopenta[g]isoquinoline-5-sulfonamide], `O=S(=O)(NC1CC(F)(F)C1)c1c2c(cc3cnc(C4CC4)cc13)CC(Nc1ccc(C3(O)COC3)nc1)C2` (stereo not shown) [Example 74, 3-cyclopropyl-N-(3,3-difluorocyclobutyl)-7-[[6-(3-hydroxyoxetan-3-yl)pyridin-3-yl]amino]-7,8-dihydro-6H-cyclopenta[g]isoquinoline-5-sulfonamide] is lower in pIC50: 8.00 to 9.00 for the first, 7.30 to 8.00 for the second.

`CC(C)(F)CNS(=O)(=O)c1c2c(cc3c(F)nc(C4CC4)cc13)CC(Nc1ccc(C(N)=O)nc1)C2` (stereo not shown) [Example 23, 5-[[3-cyclopropyl-1-fluoro-5-[(2-fluoro-2-methyl-propyl)sulfamoyl]-7,8-dihydro-6H-cyclopenta[g]isoquinolin-7-yl]amino]pyridine-2-carboxamide] and `CC(C)(F)CNS(=O)(=O)c1c2c(cc3cnc(C4CC4)cc13)C[C@@H](Nc1ccc(S(N)(=O)=O)nc1)C2` [Example 61, (7R)-3-cyclopropyl-N-(2-fluoro-2-methylpropyl)-7-[(6-sulfamoylpyridin-3-yl)amino]-7,8-dihydro-6H-cyclopenta[g]isoquinoline-5-sulfonamide] fall in the same range of pIC50: 7.30 to 8.00 for the first, 7.30 to 8.00 for the second.

Compared with `COc1ccc(NC2Cc3cc4cnc(C5CC5)cc4c(S(=O)(=O)NCC(C)(C)F)c3C2)nn1` (stereo not shown) [Example 28, 3-cyclopropyl-N-(2-fluoro-2-methylpropyl)-7-[(6-methoxypyridazin-3-yl)amino]-7,8-dihydro-6H-cyclopenta[g]isoquinoline-5-sulfonamide], `COc1cc(Oc2cncc(N[C@@H]3Cc4cc5cnc(C6CC6)cc5c(S(=O)(=O)NCC(C)(C)F)c4C3)c2)ccn1` [Example 16, (7R)-3-cyclopropyl-N-(2-fluoro-2-methylpropyl)-7-[[5-(2-methoxypyridin-4-yl)oxypyridin-3-yl]amino]-7,8-dihydro-6H-cyclopenta[g]isoquinoline-5-sulfonamide] is lower in pIC50: 7.30 to 8.00 for the first, 7.00 to 7.30 for the second. The first is the more potent here.

`CC(C)CNS(=O)(=O)c1c2c(cc3cnc(C4CC4)cc13)C[C@H](Nc1nncn1-c1cccnc1)C2` (single isomer, unassigned) [Example 3, (7R*)-3-cyclopropyl-N-(2-methylpropyl)-7-[(4-pyridin-3-yl-1,2,4-triazol-3-yl)amino]-7,8-dihydro-6H-cyclopenta[g]isoquinoline-5-sulfonamide [* or S]] and `CC(C)CNS(=O)(=O)c1c2c(cc3cnc(C4CC4)cc13)CC(C(=O)NCC(C)(C)C)C2` (stereo not shown) [Example 54, 3-cyclopropyl-N-(2,2-dimethylpropyl)-5-(2-methylpropylsulfamoyl)-7,8-dihydro-6H-cyclopenta[g]isoquinoline-7-carboxamide] fall in the same range of pIC50: 7.30 to 8.00 for the first, 7.30 to 8.00 for the second.

`CC(C)(F)CNS(=O)(=O)c1c2c(cc3cnc(C4CC4)cc13)CN(Cc1ccn[nH]1)C2` [Example 102, 7-cyclopropyl-N-(2-fluoro-2-methylpropyl)-2-(1H-pyrazol-5-ylmethyl)-1,3-dihydropyrrolo[3,4-g]isoquinoline-9-sulfonamide] and `CC(C)(F)CNS(=O)(=O)c1c2c(cc3cnc(C4CC4)cc13)CN(C(=O)Cc1cccnc1)C2` [Example 72, 7-cyclopropyl-N-(2-fluoro-2-methylpropyl)-2-(2-pyridin-3-ylacetyl)-1,3-dihydropyrrolo[3,4-g]isoquinoline-9-sulfonamide] fall in the same range of pIC50: 5.70 to 7.00 for the first, 5.70 to 7.00 for the second.

`CC(O)CNS(=O)(=O)c1c2c(cc3cnc(C4CC4)cc13)CCC2` (stereo not shown) [Example 17, 3-cyclopropyl-N-(2-hydroxypropyl)-7,8-dihydro-6H-cyclopenta[g]isoquinoline-5-sulfonamide] and `CC(C)CNS(=O)(=O)c1c2c(cc3cnc(C4CC4)cc13)CNC2` [Example 60, 7-cyclopropyl-N-(2-methylpropyl)-2,3-dihydro-1H-pyrrolo[3,4-g]isoquinoline-9-sulfonamide] fall in the same range of pIC50: 5.70 to 7.00 for the first, 5.70 to 7.00 for the second.

`CCNC(=O)NC1CCc2c1cc1cnc(C3CC3)cc1c2S(=O)(=O)NCC(C)C` (stereo not shown) [Example 45, 1-[3-cyclopropyl-5-(2-methylpropylsulfamoyl)-7,8-dihydro-6H-cyclopenta[g]isoquinolin-8-yl]-3-ethylurea] and `CCNC(=O)NC1CCc2cc3cnc(C4CC4)cc3c(S(=O)(=O)NCC(C)C)c21` (stereo not shown) [Example 46, 1-[3-cyclopropyl-5-(2-methylpropylsulfamoyl)-7,8-dihydro-6H-cyclopenta[g]isoquinolin-6-yl]-3-ethylurea] fall in the same range of pIC50: 5.70 to 7.00 for the first, 5.70 to 7.00 for the second.

`CC(=O)Nc1c2c(c(S(=O)(=O)NCC(C)C)c3cc(C4CC4)ncc13)CCC2` [Example 22, N-[3-cyclopropyl-5-(2-methylpropylsulfamoyl)-7,8-dihydro-6H-cyclopenta[g]isoquinolin-9-yl]acetamide] and `COc1nc(C2CC2)cc2c(S(=O)(=O)NCC(C)(C)F)c3c(cc12)CC(Nc1ccc(C2(O)COC2)nc1)C3` (stereo not shown) [Example 26, 3-cyclopropyl-N-(2-fluoro-2-methylpropyl)-7-[[6-(3-hydroxyoxetan-3-yl)pyridin-3-yl]amino]-1-methoxy-7,8-dihydro-6H-cyclopenta[g]isoquinoline-5-sulfonamide] fall in the same range of pIC50: 5.70 to 7.00 for the first, 5.70 to 7.00 for the second.

With `NC(=O)c1ccc(N[C@@H]2Cc3cc4cnc(C5CC5)cc4c(S(=O)(=O)NC4CC(F)(F)C4)c3C2)nn1` [Example 94, 6-[[(7R)-3-cyclopropyl-5-[(3,3-difluorocyclobutyl)sulfamoyl]-7,8-dihydro-6H-cyclopenta[g]isoquinolin-7-yl]amino]pyridazine-3-carboxamide] the pIC50 was 7.30 to 8.00.
